Source: patent EP4501917A1, “3,4-DIHYDROQUINOXALINE-2-CARBOXIMIDE DERIVATIVE COMPOUND AND PHARMACEUTICAL COMPOSITION COMPRISING SAME FOR PREVENTING OR TREATING CANCER DISEASE” (Daegu-Gyeongbuk Medical Innovation Foundation, priority 2022, dated 2023)

How the values were obtained:
HDAC2 = HDAC2 (Homo sapiens, UniProt Q92769); assay: Selective HDAC inhibition, HDAC Fluorogenic assay kit; conditions: final concentration 10 µM; HDAC substrate 3 200 µM; positive control (1% DMSO) set to 100
Protocol: (§1) For analysis, HDAC substrate 3 was diluted in buffer to a concentration of 200 µM and used in HDAC 1, 2, 3, 6, and 10 assays, HDAC substrate 2A was diluted in buffer to a concentration of 200 µM and used in HDAC 4, 7, 9, and 11 assays, HDAC substrate 2A was diluted in buffer to a concentration of 20 µM and used in HDAC 8 assays. For the HDAC 11 assay, a dedicated buffer included in the kit was used separately, and the same buffer was used for the remaining assays. The compound of the Example was diluted to 1 mM (1% DMSO concentration) using DMSO to obtain a final concentration of 10 µM, and prepared by diluting 1/10 with assay buffer. In a 96-well black round-bottom plate, 5 µL of the diluted compound of the Example, 5 µL of the diluted HDAC substrate, 5 µL of BSA (1 mg/ml), 5 µL of the HDAC enzyme diluted to the appropriate concentration, and 30 µL of assay buffer were added, and the enzyme reaction was performed at 37°C for 30 minutes. […] Afterwards, 50 µL of 2X HDAC developer was added to each well. After reacting for 15 minutes at room temperature, the fluorescence values at excitation wavelengths of 350-380 nm and emission wavelengths of 440-460 nm were measured using a microplate reader (Synergy Neo).

HDAC8 [1] = target: T1, HDAC8 (Homo sapiens, UniProt Q9BY41); assay: HDAC8 inhibitory activity analysis (in vitro), RFU analysis, HDAC Fluorogenic assay kit; assay type: biochemical; conditions: compound final concentration 10 µM; HDAC substrate 2A 20 µM; positive control (1% DMSO) set to 100, lower = more inhibition
T1 construct: purchased BPS bioscience
T1 sequence (Q9BY41 1-377): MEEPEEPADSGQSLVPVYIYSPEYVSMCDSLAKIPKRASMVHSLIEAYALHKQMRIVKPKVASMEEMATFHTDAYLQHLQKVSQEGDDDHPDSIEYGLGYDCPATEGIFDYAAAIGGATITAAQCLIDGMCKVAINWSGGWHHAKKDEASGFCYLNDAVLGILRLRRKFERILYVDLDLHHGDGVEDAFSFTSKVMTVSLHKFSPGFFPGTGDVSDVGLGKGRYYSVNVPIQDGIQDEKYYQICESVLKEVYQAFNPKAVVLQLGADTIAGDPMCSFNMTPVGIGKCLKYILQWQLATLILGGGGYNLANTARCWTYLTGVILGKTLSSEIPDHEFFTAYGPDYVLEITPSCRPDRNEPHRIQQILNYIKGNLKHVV
Protocol: The compound of the Example was diluted to 1 mM (1% DMSO concentration) using DMSO to obtain a final concentration of 10 µM, and prepared by diluting 1/10 with assay buffer. In a 96-well black round-bottom plate, 5 µL of the diluted compound of the Example, 5 µL of the diluted HDAC substrate 2A, 5 µL of BSA (1 mg/mL), 5 µL of the HDAC8 enzyme diluted to an appropriate concentration, and 30 µL of assay buffer were added, and the enzyme reaction was performed at 37°C for 30 minutes. […] Afterwards, 50 µL of 2X HDAC developer was added to each well. After reacting for 15 minutes at room temperature, the fluorescence values at excitation wavelengths of 350-380 nm and emission wavelengths of 440-460 nm were measured using a microplate reader (Synergy Neo).

HDAC8 [2] = target: T1, HDAC8; assay: Selective HDAC inhibition, HDAC Fluorogenic assay kit; assay type: biochemical; conditions: final concentration 10 µM; HDAC substrate 2A 20 µM; positive control (1% DMSO) set to 100; read-out: HDAC8 enzyme activity (%)
Protocol: as §1

HDAC4 = HDAC4 (Homo sapiens, UniProt P56524); assay: as above; conditions: read-out: HDAC4 enzyme activity (%)
Chain of HDAC4 (P56524 whole entry): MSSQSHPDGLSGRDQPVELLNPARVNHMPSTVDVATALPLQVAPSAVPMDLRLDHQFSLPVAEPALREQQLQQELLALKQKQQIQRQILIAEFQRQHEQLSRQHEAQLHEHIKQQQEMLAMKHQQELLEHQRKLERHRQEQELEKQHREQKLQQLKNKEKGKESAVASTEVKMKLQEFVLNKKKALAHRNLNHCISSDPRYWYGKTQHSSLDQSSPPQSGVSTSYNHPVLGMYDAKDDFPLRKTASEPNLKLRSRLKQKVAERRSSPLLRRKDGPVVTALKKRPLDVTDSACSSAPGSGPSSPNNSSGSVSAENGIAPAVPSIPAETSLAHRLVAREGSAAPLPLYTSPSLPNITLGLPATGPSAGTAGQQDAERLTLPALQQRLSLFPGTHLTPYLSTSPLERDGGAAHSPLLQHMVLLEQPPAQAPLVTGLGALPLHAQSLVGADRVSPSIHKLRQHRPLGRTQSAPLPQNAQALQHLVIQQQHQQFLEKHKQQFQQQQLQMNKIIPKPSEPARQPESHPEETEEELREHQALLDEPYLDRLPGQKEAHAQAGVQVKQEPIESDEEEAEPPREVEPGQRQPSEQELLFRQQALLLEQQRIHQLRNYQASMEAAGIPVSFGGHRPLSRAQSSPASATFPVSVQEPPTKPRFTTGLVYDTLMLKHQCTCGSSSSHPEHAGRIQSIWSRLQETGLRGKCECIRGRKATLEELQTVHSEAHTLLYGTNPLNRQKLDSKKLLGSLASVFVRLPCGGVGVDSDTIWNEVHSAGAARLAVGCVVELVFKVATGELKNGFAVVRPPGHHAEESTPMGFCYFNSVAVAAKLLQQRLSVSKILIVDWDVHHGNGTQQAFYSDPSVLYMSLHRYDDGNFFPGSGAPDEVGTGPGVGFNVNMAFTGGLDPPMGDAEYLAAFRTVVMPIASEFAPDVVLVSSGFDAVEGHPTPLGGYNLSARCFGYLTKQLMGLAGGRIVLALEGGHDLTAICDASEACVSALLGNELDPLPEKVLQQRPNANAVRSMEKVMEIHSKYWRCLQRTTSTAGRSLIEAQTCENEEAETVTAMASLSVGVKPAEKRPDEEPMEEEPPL
Protocol: as §1

HDAC6 = target: T2, HDAC6 (Homo sapiens, UniProt Q9UBN7); assay: as above; conditions: final concentration 10 µM; HDAC substrate 3 200 µM; positive control (1% DMSO) set to 100
T2 sequence (Q9UBN7 1-1215): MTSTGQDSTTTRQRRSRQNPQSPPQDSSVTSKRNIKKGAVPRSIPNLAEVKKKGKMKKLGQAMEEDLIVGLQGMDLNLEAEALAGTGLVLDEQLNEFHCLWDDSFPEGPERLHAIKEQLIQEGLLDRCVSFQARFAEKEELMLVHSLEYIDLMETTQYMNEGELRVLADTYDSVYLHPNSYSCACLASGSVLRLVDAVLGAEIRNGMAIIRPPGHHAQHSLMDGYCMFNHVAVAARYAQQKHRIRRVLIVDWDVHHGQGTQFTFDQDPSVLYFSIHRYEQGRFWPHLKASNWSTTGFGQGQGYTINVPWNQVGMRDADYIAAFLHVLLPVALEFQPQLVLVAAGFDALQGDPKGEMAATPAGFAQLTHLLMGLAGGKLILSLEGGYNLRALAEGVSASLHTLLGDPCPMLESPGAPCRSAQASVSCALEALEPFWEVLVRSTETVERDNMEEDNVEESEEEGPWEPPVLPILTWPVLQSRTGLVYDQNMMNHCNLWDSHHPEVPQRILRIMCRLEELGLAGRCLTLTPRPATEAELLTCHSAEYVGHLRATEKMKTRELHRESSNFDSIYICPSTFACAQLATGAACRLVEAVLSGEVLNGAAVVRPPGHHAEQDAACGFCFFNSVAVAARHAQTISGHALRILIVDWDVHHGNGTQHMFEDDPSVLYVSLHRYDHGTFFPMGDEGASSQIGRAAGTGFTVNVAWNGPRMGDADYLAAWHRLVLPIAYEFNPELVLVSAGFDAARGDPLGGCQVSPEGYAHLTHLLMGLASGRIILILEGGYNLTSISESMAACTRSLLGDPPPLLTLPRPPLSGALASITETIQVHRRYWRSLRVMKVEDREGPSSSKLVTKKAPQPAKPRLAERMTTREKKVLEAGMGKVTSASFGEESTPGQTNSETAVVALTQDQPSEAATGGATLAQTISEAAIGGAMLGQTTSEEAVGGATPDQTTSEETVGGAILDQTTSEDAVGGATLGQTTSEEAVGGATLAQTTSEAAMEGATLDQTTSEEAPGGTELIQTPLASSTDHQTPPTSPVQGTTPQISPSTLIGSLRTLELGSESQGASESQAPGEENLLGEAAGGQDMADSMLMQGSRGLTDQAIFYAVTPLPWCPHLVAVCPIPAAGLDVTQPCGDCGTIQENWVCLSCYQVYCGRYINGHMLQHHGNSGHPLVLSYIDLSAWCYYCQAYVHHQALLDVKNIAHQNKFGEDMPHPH
Protocol: as §1

HDAC10 = target: T3, HDAC10 (Homo sapiens, UniProt Q969S8); assay: as above; conditions: final concentration 10 µM; HDAC substrate 3 200 µM; positive control (1% DMSO) set to 100
T3 sequence (Q969S8 1-669): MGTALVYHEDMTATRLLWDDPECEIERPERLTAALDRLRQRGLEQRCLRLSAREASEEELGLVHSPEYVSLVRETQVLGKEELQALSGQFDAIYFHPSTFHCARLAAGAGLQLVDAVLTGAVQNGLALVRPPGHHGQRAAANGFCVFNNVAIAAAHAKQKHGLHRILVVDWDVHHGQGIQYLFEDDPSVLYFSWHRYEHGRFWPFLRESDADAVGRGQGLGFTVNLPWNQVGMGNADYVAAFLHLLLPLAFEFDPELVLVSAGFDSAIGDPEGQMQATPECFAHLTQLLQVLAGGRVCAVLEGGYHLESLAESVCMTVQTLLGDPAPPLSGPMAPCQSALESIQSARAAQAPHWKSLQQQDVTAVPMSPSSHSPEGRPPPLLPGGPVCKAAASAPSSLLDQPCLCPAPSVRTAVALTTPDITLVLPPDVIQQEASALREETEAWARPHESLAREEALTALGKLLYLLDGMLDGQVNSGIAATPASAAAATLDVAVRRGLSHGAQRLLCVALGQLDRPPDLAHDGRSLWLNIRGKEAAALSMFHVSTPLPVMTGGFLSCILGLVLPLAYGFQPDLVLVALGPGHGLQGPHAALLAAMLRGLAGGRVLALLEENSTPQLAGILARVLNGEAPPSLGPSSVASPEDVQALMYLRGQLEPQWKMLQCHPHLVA
Protocol: as §1

HDAC9 = HDAC9 (Homo sapiens, UniProt Q9UKV0); assay: as above; conditions: read-out: HDAC9 enzyme activity (%)
Chain of HDAC9 (Q9UKV0 whole entry): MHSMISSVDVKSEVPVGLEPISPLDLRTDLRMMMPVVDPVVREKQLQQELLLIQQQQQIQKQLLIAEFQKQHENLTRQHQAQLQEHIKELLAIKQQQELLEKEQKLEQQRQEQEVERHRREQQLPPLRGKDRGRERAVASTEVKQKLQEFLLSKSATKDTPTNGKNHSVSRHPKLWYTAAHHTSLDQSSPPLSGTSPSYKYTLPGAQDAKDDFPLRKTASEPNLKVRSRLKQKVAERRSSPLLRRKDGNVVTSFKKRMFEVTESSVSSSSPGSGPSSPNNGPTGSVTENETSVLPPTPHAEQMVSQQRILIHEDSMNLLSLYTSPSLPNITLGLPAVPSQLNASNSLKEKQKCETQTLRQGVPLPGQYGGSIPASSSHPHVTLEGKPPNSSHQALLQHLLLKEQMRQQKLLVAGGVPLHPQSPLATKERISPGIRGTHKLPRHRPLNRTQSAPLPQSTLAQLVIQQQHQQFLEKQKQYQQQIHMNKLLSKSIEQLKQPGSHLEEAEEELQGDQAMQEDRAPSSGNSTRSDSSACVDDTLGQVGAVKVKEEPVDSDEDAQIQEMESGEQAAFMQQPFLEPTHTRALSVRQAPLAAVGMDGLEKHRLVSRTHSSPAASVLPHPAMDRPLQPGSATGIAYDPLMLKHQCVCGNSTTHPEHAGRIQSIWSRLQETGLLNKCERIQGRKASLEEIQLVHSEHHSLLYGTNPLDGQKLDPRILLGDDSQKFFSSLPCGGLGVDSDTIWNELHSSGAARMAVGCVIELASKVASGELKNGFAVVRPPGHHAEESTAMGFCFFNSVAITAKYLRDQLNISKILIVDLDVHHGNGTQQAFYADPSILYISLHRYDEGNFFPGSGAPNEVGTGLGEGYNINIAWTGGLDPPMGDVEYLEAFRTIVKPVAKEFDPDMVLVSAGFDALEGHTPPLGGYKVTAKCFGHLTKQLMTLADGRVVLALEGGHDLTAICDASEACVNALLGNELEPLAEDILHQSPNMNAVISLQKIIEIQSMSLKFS
Protocol: as §1

HDAC1 = HDAC1 (Homo sapiens, UniProt Q13547); assay: as above; conditions: final concentration 10 µM; HDAC substrate 3 200 µM; positive control (1% DMSO) set to 100
Chain of HDAC1 (Q13547 whole entry): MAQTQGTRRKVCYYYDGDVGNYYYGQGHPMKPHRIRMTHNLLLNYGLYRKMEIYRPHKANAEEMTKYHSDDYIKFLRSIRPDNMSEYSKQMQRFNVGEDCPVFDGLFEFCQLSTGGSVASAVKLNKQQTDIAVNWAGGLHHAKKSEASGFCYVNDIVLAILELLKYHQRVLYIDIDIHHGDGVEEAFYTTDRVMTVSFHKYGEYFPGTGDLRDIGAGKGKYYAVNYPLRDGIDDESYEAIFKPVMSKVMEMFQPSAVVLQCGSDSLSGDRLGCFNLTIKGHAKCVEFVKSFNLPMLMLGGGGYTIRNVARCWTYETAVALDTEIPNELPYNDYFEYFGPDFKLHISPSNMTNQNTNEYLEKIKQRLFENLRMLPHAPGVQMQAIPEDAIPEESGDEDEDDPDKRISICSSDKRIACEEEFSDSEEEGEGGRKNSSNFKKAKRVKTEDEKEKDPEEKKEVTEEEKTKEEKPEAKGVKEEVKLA
Protocol: as §1

HDAC11 = target: T4, HDAC11 (Homo sapiens, UniProt Q96DB2); assay: as above; conditions: read-out: HDAC11 enzyme activity (%)
T4 sequence (Q96DB2 1-347): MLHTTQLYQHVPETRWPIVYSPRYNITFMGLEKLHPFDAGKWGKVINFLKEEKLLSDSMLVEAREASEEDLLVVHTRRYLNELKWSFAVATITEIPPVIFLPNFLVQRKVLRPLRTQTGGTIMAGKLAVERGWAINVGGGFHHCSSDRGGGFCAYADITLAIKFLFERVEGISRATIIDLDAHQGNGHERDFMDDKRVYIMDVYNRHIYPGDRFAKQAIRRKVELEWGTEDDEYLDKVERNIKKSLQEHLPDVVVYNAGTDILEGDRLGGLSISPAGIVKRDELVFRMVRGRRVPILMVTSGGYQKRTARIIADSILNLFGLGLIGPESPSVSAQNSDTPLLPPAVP
Protocol: as §1

Chain of HDAC2 (Q92769 whole entry): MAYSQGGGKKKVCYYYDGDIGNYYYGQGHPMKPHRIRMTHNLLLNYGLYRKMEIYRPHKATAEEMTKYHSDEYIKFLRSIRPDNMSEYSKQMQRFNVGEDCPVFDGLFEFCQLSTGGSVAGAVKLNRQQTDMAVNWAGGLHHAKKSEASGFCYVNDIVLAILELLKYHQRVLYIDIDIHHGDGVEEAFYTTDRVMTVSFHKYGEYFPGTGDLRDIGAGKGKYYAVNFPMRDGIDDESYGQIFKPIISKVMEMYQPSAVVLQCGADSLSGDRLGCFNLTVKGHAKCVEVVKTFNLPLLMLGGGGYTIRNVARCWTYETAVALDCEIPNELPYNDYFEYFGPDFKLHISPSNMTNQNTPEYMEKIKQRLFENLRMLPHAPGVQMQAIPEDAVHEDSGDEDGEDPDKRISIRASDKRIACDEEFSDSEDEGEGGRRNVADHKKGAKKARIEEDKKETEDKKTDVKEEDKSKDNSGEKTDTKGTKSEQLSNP

HDAC2 enzyme activity (%) (HDAC2): 0.70%
RFU (%) (HDAC8 [1]): 13.83%
remaining activity at 10 µM (HDAC8 [2]): 11.1%
remaining activity at 10 µM (HDAC4): 18.8%
HDAC6 enzyme activity (%) (HDAC6): 1.11%
HDAC10 enzyme activity (%) (HDAC10): 1.21%
remaining activity at 10 µM (HDAC9): 21.5%
HDAC1 enzyme activity (%) (HDAC1): 1.22%
remaining activity at 10 µM (HDAC11): 59.1%
SMILES: CC(/C=C/C(=O)NO)=C\[C@@H](C)C(=O)c1ccc(N(C)C)cc1 [TSA, Trichostatin A, reference compound]
